Experimental data: US8741659B2, “Composition for measuring the binding affinity between nucleic acid and test substance, and use thereof” (Osaka University, priority 2007, dated 2014)

Key:
[1] = tested on: RNAs of FIG. 2 (SEQ ID NOs: 1 through 3), with or without bulge structure; assay: Evaluation of binding between xanthone fluorescent molecule and RNA (fluorescence before and after mixing RNA); conditions: 10 μM compound, 30 μM RNA (A, U, C, G bulge or no bulge), cacodylate buffer pH 7.0, NaCl 100 mM
Procedure: Next, binding between X2S and RNAs was evaluated. The RNAs used in the present example had the structure illustrated in FIG. 2. FIG. 2 is a diagram schematically illustrating the structure of the RNAs used in the present example. The RNAs used in the present example had sequences shown in SEQ ID NOs: 1 through 3.
The symbol N in FIG. 2 represents either a base out of A, U, C, and G, or no base. Thus, in a case where a particular RNA as in FIG. 2 has N representing a base out of A, U, C, and G, the RNA is an RNA formed by hybridization of an RNA having the base sequence shown in SEQ ID NO: 1 with a single strand RNA having the base sequence shown in SEQ ID NO: 2. On the other hand, in a case where a particular RNA as in FIG. 2 has N representing no base, the RNA is an RNA formed by hybridization of an RNA having the base sequence shown in SEQ ID NO: 1 with an RNA having the base sequence shown in SEQ ID NO: 3.
This also applies to other bases. The RNAs used in the present example were purchased from Hokkaido System Science Co., Ltd.
Firstly, X2S was mixed in a cacodylate buffer solution (sodium cacodylate: 10 mM, pH 7.0; NaCl: 100 mM) at 10 μM, so that an X2S solution was obtained. The X2S solution was irradiated with light having an absorption maximum of 371±3 nm, and a fluorescence intensity was then measured. The fluorescence intensity was measured with use of a device (product number: RF-5300PC) available from Shimadzu Corporation. For each type of the RNAs, the fluorescence intensity was measured after the RNA was mixed in the X2S solution at 30 μM.
FIGS. 3 and 4 compare the fluorescence intensities measured before and after the RNA was mixed. […] The horizontal axis represents the fluorescence wavelength, whereas the vertical axis represents the fluorescence intensity. FIG. 4 is an enlarged graph corresponding to the fluorescence intensity of 5 A.U. in FIG. 3 and its vicinity.
Binding between X1S and RNAs was evaluated by a method identical to the method described in Example 2, except that X1S was used instead of X2S. […]

[2] = tested on: RRE; assay: Fluorescence titration / evaluation of binding with RRE; parameters: species or system HIV-1
Procedure: In this Example, binding between RRE and X2S was evaluated by a method identical to the method in Example 2.
The […] of RRE is shown in SEQ ID NO: 8. […] RRE was purchased from Hokkaido System Science Co., Ltd.
Firstly, the X2S solution obtained in Example 1 was diluted with a cacodylate buffer solution (sodium cacodylate: 10 mM, pH 7.0; NaCl: 100 mM), so that a concentration of X2S became 2 μM. To the 2-μM X2S solution thus obtained, RRE was added in steps at 0 μM, 1 μM, 2 μM, 3 μM, 4 μM, 5 μM, 6 μM, and 8 μM. Further, a fluorescence intensity of the 2-μM X2S solution was measured at each concentration. The fluorescence intensity was measured in the same manner as in Example 2.
FIG. 7 is a view illustrating a result of evaluation of binding between X2S and RRE. In FIG. 7, the horizontal axis represents the fluorescence wavelength, whereas the vertical axis represents the fluorescence intensity. […] Other figures include such arrows for results of measurements of fluorescence intensities.
FIG. 8 is a view plotting the fluorescence intensities at a measured wavelength of 453 nm shown in the result illustrated in FIG. 7. The horizontal axis represents the concentration of RRE, whereas the vertical axis represents the fluorescence intensity.
Then, changes in fluorescence intensities were observed.
Firstly, X2S, X2S(3), X2S(4), X2S(5), X2S(2-Me), and 3,6-X2S(2) were respectively mixed with cacodylate buffer solutions (sodium cacodylate: 10 mM, pH 7.0; NaCl: 100 mM) each at 1.0 μM, so that solutions of the respective compounds were obtained. RRE used in this Example was the same as that used in Example 4. RRE was added to each of the solutions of the respective compounds in steps at 0.0 μM, 0.2 μM, 0.4 μM, 0.8 μM, and 1.0 μM.
Each of the solutions to which RRE was added was irradiated with light, and a fluorescence intensity was measured. A device used for measuring the fluorescence intensity was the same as that used in Example 13. A variation in a slit width was also the same as that in Example 14.
FIG. 39 is a graph illustrating a relationship between a concentration of RRE added and a fluorescence intensity of each compound. Further, FIG. 39 is also a view plotting the fluorescence intensities of the respective fluorescence peaks shown in the results illustrated in FIGS. 33 to 38. FIG. 40 is a view plotting residual fluorescence intensities (%) which were obtained based on the results shown in FIGS. 33 to 38, assuming that the fluorescence intensities of the respective fluorescence peaks observed at a concentration of 0.0 μM of RRE were 100%. In each of FIGS. 39 and 40, the horizontal axis represents the concentration of the RNA. In FIG. 39, the vertical axis represents the fluorescence intensity. In FIG. 40, the vertical axis represents the residual fluorescence intensity (%).
FIG. 41 is a view plotting values obtained by dividing (i) the residual fluorescence intensities (%) obtained in the case involving use of the double strand RNA by (ii) the residual fluorescence intensities (%) obtained in the case involving use of RRE. That is, FIG. 41 is a view plotting values obtained by dividing (i) the residual fluorescence intensity (%) shown in FIG. 32 by (ii) the residual fluorescence intensities (%) shown in FIG. 40. FIG. 42 is a view plotting values obtained by subtracting (i) the residual fluorescence intensities (%) obtained in the case involving use of RRE from (ii) the residual fluorescence intensities (%) obtained in the case involving use of the double strand RNA. That is, FIG. 42 is a view plotting values obtained by subtracting (i) the residual fluorescence intensities (%) shown in FIG. 40 from (ii) the residual fluorescence intensities (%) shown in FIG. 32.
In this Example, 1-Pyrenemethanamide, hydrochloride was caused to bind to a double strand RNA or RRE. Then, a change in a fluorescence intensity was observed. […]

## NCCOc1ccc2oc3ccc(OCCN)cc3c(=O)c2c1 [X2S, 2,7-bis(2-aminoethoxy)xanthen-9-one]
[1]
  binding to RNAs: capable of binding to RNAs having various structures
[2]; 1.0 μM compound, RRE 0.0-1.0 μM
  reduction of fluorescence intensity (residual fluorescence intensity) on binding RRE: particularly high reduction rates
[2]; 2 μM X2S, RRE 0-8 μM, 453 nm
  fluorescence of X2S on binding to RRE: fluorescence of X2S is quenched
[2]; FIGS. 41 and 42, 1.0 μM compound
  difference in quenching efficiency between RRE and double strand RNA: greatest
